In patent US20190365675A1, “COMPOSITIONS FOR THE PREVENTION AND/OR TREATMENT OF ALCOHOL USE DISORDERS” (SERVICIO ANDALUZ DE SALUD, priority 2016, published 2019):

Columns and labels:
Format in all cases: in vivo, Wistar rats
[1] = system: corticosterone; experiment: Plasma corticosterone levels (R.I.A.)
Protocol: (§1) The animals were treated with intragastric (i.g.) ethanol 3 times a day using an i.g. cannula (16G needle, Fisher Scientific, Waltham, Mass., USA), following a protocol based on a slightly modified standard 4-day alcohol intoxication pattern (Bernier et al., 2002a, b) (FIG. 1A). The ethanol doses were administered every 8 h for a total time of 4 days. The rats treated with ethanol received an initial loading dose of 5 g/kg of ethanol in a 30% solution (w/v) and then a maximum maintenance dose of 3 g/kg, which were determined based on blood ethanol levels (BEL). This repeated standard alcohol intoxication paradigm kept BEL intoxication relatively constant in a range of sedation/ataxia (190 to 430 mg/dl, Table 3), according to the 6-point alcohol intoxication behavior scale (Majchrowicz, 1975). The mean dose of ethanol/rat/day (days 1-4) was 7.06 g/kg, similar to other studies (Obernier et al., 2002a, b). […]
(§2) Corticosterone and LPS were measured in plasma by means of the use of radioimmunoassay (R.I.A.) kits available on the market (Coat-A-Count®, Siemens, La., USA) or colorimetric enzymatic reaction (HyCult Biotech, Uden, Netherlands), respectively.

[2] = system: LPS; experiment: Plasma LPS levels (intestinal permeability to endotoxins); settings: animals pretreated with OEA and receiving ethanol; ethanol alone about 80%; does not differ from control or ethanol group
Protocol: as §1, §2

[3] = system: HMGB1; experiment: HMGB1 levels (ELISA) and nuclear/cytoplasmic ratio (Western blot) in frontal cortex after ethanol intoxication
Protocol: The animals were treated with intragastric (i.g.) ethanol 3 times a day using an i.g. cannula (16G needle, Fisher Scientific, Waltham, Mass., USA), following a protocol based on a slightly modified standard 4-day alcohol intoxication pattern (Bernier et al., 2002a, b) (FIG. 1A). The ethanol doses were administered every 8 h for a total time of 4 days. The rats treated with ethanol received an initial loading dose of 5 g/kg of ethanol in a 30% solution (w/v) and then a maximum maintenance dose of 3 g/kg, which were determined based on blood ethanol levels (BEL). This repeated standard alcohol intoxication paradigm kept BEL intoxication relatively constant in a range of sedation/ataxia (190 to 430 mg/dl, Table 3), according to the 6-point alcohol intoxication behavior scale (Majchrowicz, 1975). […] The autoradiograph was quantified by densitometry (NIH ImageJ® software, National Biosciences, Lincoln, Nebr. USA) and expressed as optical density (OD). […] The levels of soluble HMGB1, TNF-α, IL-1β and MCP-1 were determined by means of a commercially available enzyme-linked immunosorbent assay kit (ELISA) (Elabscience Biotechnology Co., Ltd., China, for HMGB-1; RayBiotech®, GA, USA, for TNF-α, IL-1β, and MCP-1). The nuclear/cytosol HMGB1 fraction was determined by means of Western blot analysis.

CCCCCCCC/C=C\CCCCCCCC(=O)NCCO [OEA, oleoylethanolamide]
Plasma corticosterone levels in the control animals ([1]; control animals (no ethanol)): did not modify
Ethanol-induced increase in plasma corticosterone levels ([1]; plasma, 2-4 h after last ethanol, OEA pre-treatment): prevented entirely
Plasma LPS levels, increase with respect to the control [2]: 44%
Ethanol intoxication-induced increase in HMGB1 (ELISA) ([3]; 2-4 h after last ethanol, OEA 5 mg/kg i.p. (initial 10 mg/kg) 10 min before each ethanol): prevented
HMGB1 n/c ratio (nuclear/cytoplasmic, Western blot) ([3]; OEA + ethanol, ethanol alone 1.21, control 1.3): 1.48
